Experimental data: patent publication US12685715B2, “Compositions, methods of treatment, and containers including compositions” (University of Florida Research Foundation, Inc., priority 2018, dated 2026)

What was measured:
[1] = Cysteamine degradation in anti-oxidant formulations, vials exposed to atmospheric oxygen (UV-vis); assay type: physicochemical
Protocol: All formulations containing hydrophilic components (SUR, CAT) were prepared by stirring at room temperature till dissolution. All formulations were tested for pH and adjusted to 7.4 if required. For each formulation, 20 mL of liquid was placed into a 22 mL, flat bottom, 28 mm diameter, glass vial (Fisher Scientific). Each formulation was purged with nitrogen gas for two hours to minimize dissolved oxygen. After purging, 2.0±0.1 mg cysteamine was added to each formulation to achieve a concentration of 0.1 mg mL^−1 which is about one-fourth of the concentration in the commercial formulation. We are interested in the relative changes in degradation rates by addition of anti-oxidants so reducing concentration will not be a significant factor. […] The vials were then left exposed to atmospheric oxygen to ensure that the degradation rates were not limited by availability of oxygen. The formulations were periodically sampled for measurement of UV spectra in 190-350 nm range (Thermo Scientific™ GENESYS™ 10S UV-Vis Spectrophotometer). The spectra of cysteamine and the oxidation product cystamine are sufficiently different so the combined spectra obtained from the samples can be separated via a least square fit to yield the concentrations of both components. After analyzing, the solution was returned to the vial to conserve total volume. […]

[2] = Cysteamine degradation in eye drop bottles with OMAC film barrier / combined approach, drops withdrawn periodically; assay type: physicochemical; settings: calculated, 30 μL drop
Protocol: To explore the effect of any alterations in packaging, it was considered more realistic to use a commercial eye drop bottle. […] As these systems were in a nearly closed system, evaporation was not a concern, so they could be run for longer durations of time compared to the anti-oxidant experiments performed open to atmosphere. At certain time intervals, the screw cap was removed, and the bottle was squeezed to eject one drop. The mass of the drop was measured, and the drop was diluted 100 fold by PBS. This diluted solution was then measured by UV-vis spectrophotometry to determine the degradation of cysteamine.
Catalase (0.15%) was added to the cysteamine solution, which was nitrogen purged for an additional half hour. The solution was then placed in the bottle and topped with a 1.0 cm layer of 50% (v/v) soybean oil and 50% vitamin E. The bottle was then capped and tested for degradation of cysteamine while periodically withdrawing eye drop samples, as described in section 2.2.2.2.

degradation rate ([1]; 0.1 mg mL^−1 of cysteamine): 126 ± 4 µg/h
degradation rate ([1]; 4.4 mg mL^−1 of cysteamine): 132 ± 15 µg/h
degradation rate from air entering the bottle after each drop [2]: roughly 10 μg/hr
SMILES: NCCS [cysteamine, Cysteamine]
